In patent EP2257297B1, “COMPOUNDS FOR USE IN THE TREATMENT OF ACNE, SEBORRHOEA AND SEBHORROEIC DERMATITIS, OR FOR REDUCING SEBUM SECRETION” (priority 2008, dated 2009) one finds IC50 data, which are given here for 21 molecules.

T1 sequence (P33032 whole entry): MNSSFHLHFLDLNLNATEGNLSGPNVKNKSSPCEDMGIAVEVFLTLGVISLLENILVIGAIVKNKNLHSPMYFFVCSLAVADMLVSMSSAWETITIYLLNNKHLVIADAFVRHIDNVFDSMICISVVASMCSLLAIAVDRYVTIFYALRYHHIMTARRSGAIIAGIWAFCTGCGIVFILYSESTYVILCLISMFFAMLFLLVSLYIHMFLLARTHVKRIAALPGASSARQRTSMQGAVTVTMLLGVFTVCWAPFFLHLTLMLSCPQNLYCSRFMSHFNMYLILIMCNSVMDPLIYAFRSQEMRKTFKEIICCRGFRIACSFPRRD

One assay concerns the target T1, human MC5R (Homo sapiens, UniProt P33032).
T1 construct: purchased Perkin Elmer RBXMC5M400UA
The assay can be described thus: Human MC5R radioligand binding assay ([125I] NDP-MSH displacement, hMC5R membranes).
Conditions: not given
The procedure:
After incubation for 10 mins the phosphate buffer containing the iodine was added to NDP-MSH (10 ul at 1 mg/mL) in a separate eppendorf tube. This was incubated for a further 10 mins.
Resuspended membranes were kept on ice until they were added to the wells of the plate.
Assays were performed in 96 well polypropylene plates. […] This was incubated for 1 hr at 37 °C. Non-specific binding was determined with […] NDP-MSH. Plates were filtered using a Tomtec cell harvester with GF/A filters (Wallac) (presoaked in 0.6% polyethylenimine) and washed three times with 1.0 mL ice-cold wash buffer (the above incubation buffer without 1,10-phenanthroline and Complete™ protease inhibitor tablet). The filters were dried in a 37 °C oven, placed in a sample bag and 5 mL Betaplatescint (Wallac) was added. Prepared filters were counted in cassettes in a Microbeta Trilux (Wallac) for 1 min. […] Data analysis was performed using GraphPad Prism 4, employing competition binding with a single site model and a fixed Hill coefficient. The following equation was used: Y = Bottom + (Top-Bottom)/1/10^(X-logEC50), where X = log(concentration) and Y = binding to fit the data.
By IC50 is commonly meant the concentration that gives 50% inhibition. Molecule `CC[C@H](CN1CC[C@H](CNC(=O)c2ccc3cc(Cl)ccc3c2)N[C@H](CC(C)(C)N2CCCCC2)C1=O)c1ccccc1` (racemic) [Compound 500, 6-chloro-N-(((3R,5R)-3-(2-methyl-2-(piperidin-1-yl)propyl)-2-oxo-1-((S)-2-phenylbutyl)-1,4-diazepan-5-yl)methyl)-2-naphthamide] showed an IC50 of less than 100 nM.

The assay is the same for the next values; noted with them: hMC5R assay as in Example 102; compounds tested as trifluoroacetate or hydrochloride salts, or as free base.
Turning to `NCC[C@@H]1N[C@H](CNC(=O)/C=C/c2ccc(F)cc2)CCN(CC(c2ccccc2)c2ccccc2)C1=O` [Compound 276, (E)-N-(((3S,5S)-3-(2-aminoethyl)-1-(2,2-diphenylethyl)-2-oxo-1,4-diazepan-5-yl)methyl)-3-(4-fluorophenyl)acrylamide], the IC50 is less than 100 nM. Turning to `O=C(/C=C/c1ccc(Cl)cc1)NC[C@@H]1CCN(CC(c2ccccc2)c2ccccc2)C(=O)[C@H](Cc2ccccc2)N1` [Compound 324, (E)-N-(((3S,5S)-3-benzyl-1-(2,2-diphenylethyl)-2-oxo-1,4-diazepan-5-yl)methyl)-3-(4-chlorophenyl)acrylamide], the IC50 is less than 1000 nM.

With `N=C(N)NCCC[C@@H]1N[C@H](CNC(=O)Cc2ccc(Cl)c(Cl)c2)CCN(CC(c2ccccc2)c2ccccc2)C1=O` [Compound 157, 2-(3,4-dichlorophenyl)-N-(((3S,5S)-1-(2,2-diphenylethyl)-3-(3-guanidinopropyl)-2-oxo-1,4-diazepan-5-yl)methyl)acetamide], the IC50 is less than 10000 nM. `NCCC[C@@H]1N[C@H](CNC(=O)C2CCN(c3ccccc3)C2=O)CCN(CC(c2ccccc2)c2ccccc2)C1=O` (stereo partly drawn) [Compound 239, N-(((3S,5S)-3-(3-aminopropyl)-1-(2,2-diphenylethyl)-2-oxo-1,4-diazepan-5-yl)methyl)-2-oxo-1-phenylpyrrolidine-3-carboxamide]: the IC50 is less than 10000 nM. Still for that read-out and setting: then `NCCC[C@@H]1N[C@H](CNC(=O)c2csc(-c3ccccc3)n2)CCN(CC(c2ccccc2)c2ccccc2)C1=O` [Compound 242, N-(((3S,5S)-3-(3-aminopropyl)-1-(2,2-diphenylethyl)-2-oxo-1,4-diazepan-5-yl)methyl)-2-phenylthiazole-4-carboxamide], with less than 1000 nM. Take `CCC(CC)CN1CC[C@@H](CNC(=O)c2ccc(F)c(Cl)c2)N[C@@H](CCN)C1=O` [Compound 353, N-(((3S,5S)-3-(2-aminoethyl)-1-(2-ethylbutyl)-2-oxo-1,4-diazepan-5-yl)methyl)-3-chloro-4-fluorobenzamide]: the IC50 was less than 10000 nM. With `CN(C[C@@H]1CCN(CC(c2ccccc2)c2ccccc2)C(=O)[C@H](CCCN)N1)C(=O)/C=C/c1ccc(F)cc1` [Compound 257, (E)-N-(((3S,5S)-3-(3-aminopropyl)-1-(2,2-diphenylethyl)-2-oxo-1,4-diazepan-5-yl)methyl)-3-(4-fluorophenyl)-N-methylacrylamide], the IC50 was less than 10000 nM. Take `N=C(N)NCCC[C@@H]1N[C@H](CNC(=O)C23CC4CC(CC(C4)C2)C3)CCN(CC(c2ccccc2)c2ccccc2)C1=O` [Compound 161, N-(((3S,5S)-1-(2,2-diphenylethyl)-3-(3-guanidinopropyl)-2-oxo-1,4-diazepan-5-yl)methyl)-adamantane-1-carboxamide]: the IC50 is less than 10000 nM. On the same count and under the same terms, then `CNC(=N)NCCC[C@@H]1N[C@H](CNC(=O)c2ccc3ccccc3c2)CCN(CC(c2ccccc2)c2ccccc2)C1=O` [Compound 67, N-(((3S,5S)-1-(2,2-diphenylethyl)-3-(3-(3-methylguanidino)propyl)-2-oxo-1,4-diazepan-5-yl)methyl)-2-naphthamide], with less than 10 nM; and `O=C(/C=C/c1ccc(F)cc1)NC[C@@H]1CCN(CC(c2ccccc2)c2ccccc2)C(=O)[C@H](CCCNC2CCCCC2)N1` [Compound 231, (E)-N-(((3S,5S)-3-(3-(cyclohexylamino)propyl)-1-(2,2-diphenylethyl)-2-oxo-1,4-diazepan-5-yl)methyl)-3-(4-fluorophenyl)acrylamide], with less than 10 nM. In the case of `NCC[C@@H]1N[C@H](CNC(=O)c2ccc(Cl)c(Cl)c2)CCN(CC(c2ccccc2)c2ccccc2)C1=O` [Compound 280, N-(((3S,5S)-3-(2-aminoethyl)-1-(2,2-diphenylethyl)-2-oxo-1,4-diazepan-5-yl)methyl)-3,4-dichlorobenzamide], the 50% inhibitory concentration (IC50) was less than 1000 nM. `CCC(CN1CC[C@@H](CNC(=O)c2ccc3ccccc3c2)N[C@@H](CCN)C1=O)c1ccccc1` (mixture of isomers) [Compound 37, (3S,5S)-3-(2-aminoethyl)-5-(N-2-naphthamidomethyl)-1-(2-phenylbutyl)-1,4-diazepan-2-one]: the IC50 is less than 100 nM. Turning to `NCC[C@@H]1N[C@H](CCNC(=O)c2ccc(Cl)c(Cl)c2)CCN(CC(c2ccccc2)c2ccccc2)C1=O` [Compound 309, 3,4-dichloro-N-(2-((3S,5R)-1-(2,2-diphenylethyl)-2-oxo-3-(2-aminoethyl)-1,4-diazepan-5-yl)ethyl)benzamide], the IC50 was less than 1000 nM. Regarding `CC(C)NCCC[C@@H]1N[C@H](CNC(=O)c2ccc3ccccc3c2)CCN(CC(c2ccccc2)c2ccccc2)C1=O` [Compound 65, N-(((3S,5S)-1-(2,2-diphenylethyl)-3-(3-(isopropylamino)propyl)-2-oxo-1,4-diazepan-5-yl)methyl)-2-naphthamide], the IC50 was less than 100 nM. Regarding `N=C(N)NCCC[C@@H]1N[C@H](CNC(=O)/C=C/c2cccc(O)c2)CCN(CC(c2ccccc2)c2ccccc2)C1=O` [Compound 193, (E)-N-(((3S,5S)-1-(2,2-diphenylethyl)-3-(3-guanidinopropyl)-2-oxo-1,4-diazepan-5-yl)methyl)-3-(3-hydroxyphenyl)acrylamide], the IC50 was less than 1000 nM.

In the case of `N=C(N)NCCC[C@@H]1N[C@H](CNC(=O)c2ccc3ncsc3c2)CCN(CC(c2ccccc2)c2ccccc2)C1=O` [Compound 178, N-(((3S,5S)-1-(2,2-diphenylethyl)-3-(3-guanidinopropyl)-2-oxo-1,4-diazepan-5-yl)methyl)benzo[d]thiazole-6-carboxamide], the IC50 was less than 1000 nM. Consider `N=C(N)NCCC[C@@H]1N[C@H](CNC(=O)/C=C/c2ccc(O)cc2)CCN(CC(c2ccccc2)c2ccccc2)C1=O` [Compound 169, (E)-N-(((3S,5S)-1-(2,2-diphenylethyl)-3-(3-guanidinopropyl)-2-oxo-1,4-diazepan-5-yl)methyl)-3-(4-hydroxyphenyl)acrylamide], for which the IC50 was less than 1000 nM. On the same count and under the same terms, the figure for `CCC(CC)CN1CC[C@@H](CNC(=O)c2ccc(Cl)c(C)c2)N[C@@H](CCN)C1=O` [Compound 352, N-(((3S,5S)-3-(2-aminoethyl)-1-(2-ethylbutyl)-2-oxo-1,4-diazepan-5-yl)methyl)-4-chloro-3-methylbenzamide] is less than 10000 nM; for `NCCC[C@@H]1N[C@H](CNC(=O)/C=C/c2ccc(Cl)cc2)CCN(CC(c2ccccc2)c2ccccc2)C1=O` [Compound 214, (E)-N-(((3S,5S)-3-(3-aminopropyl)-1-(2,2-diphenylethyl)-2-oxo-1,4-diazepan-5-yl)methyl)-3-(4-chlorophenyl)acrylamide] it is less than 100 nM. Same read-out and setting: the figure for `N=C(N)NCCC[C@@H]1N[C@H](CNC(=O)/C=C/c2cccc(F)c2)CCN(CC(c2ccccc2)c2ccccc2)C1=O` [Compound 173, (E)-N-(((3S,5S)-1-(2,2-diphenylethyl)-3-(3-guanidinopropyl)-2-oxo-1,4-diazepan-5-yl)methyl)-3-(3-fluorophenyl)acrylamide] is less than 100 nM.
